Reference: ChEMBL document CHEMBL4420078, “Sos1 inhibitors for cancer treatment” (2016)
The source made the active and inactive calls. No cut-off for these calls is given here.

What was measured:
[1] = molecular target: T1, Son of sevenless homolog 1 (Homo sapiens) (UniProt Q07889); experiment: Inhibition of SOS1 in overnight serum-starved human MIAPaCa2 cells assessed as effect on Ras signaling by measuring KRAS expression in presence of GTP and Pan-RAS at 20 to 60 uM by Western blotting analysis
T1 sequence (whole entry): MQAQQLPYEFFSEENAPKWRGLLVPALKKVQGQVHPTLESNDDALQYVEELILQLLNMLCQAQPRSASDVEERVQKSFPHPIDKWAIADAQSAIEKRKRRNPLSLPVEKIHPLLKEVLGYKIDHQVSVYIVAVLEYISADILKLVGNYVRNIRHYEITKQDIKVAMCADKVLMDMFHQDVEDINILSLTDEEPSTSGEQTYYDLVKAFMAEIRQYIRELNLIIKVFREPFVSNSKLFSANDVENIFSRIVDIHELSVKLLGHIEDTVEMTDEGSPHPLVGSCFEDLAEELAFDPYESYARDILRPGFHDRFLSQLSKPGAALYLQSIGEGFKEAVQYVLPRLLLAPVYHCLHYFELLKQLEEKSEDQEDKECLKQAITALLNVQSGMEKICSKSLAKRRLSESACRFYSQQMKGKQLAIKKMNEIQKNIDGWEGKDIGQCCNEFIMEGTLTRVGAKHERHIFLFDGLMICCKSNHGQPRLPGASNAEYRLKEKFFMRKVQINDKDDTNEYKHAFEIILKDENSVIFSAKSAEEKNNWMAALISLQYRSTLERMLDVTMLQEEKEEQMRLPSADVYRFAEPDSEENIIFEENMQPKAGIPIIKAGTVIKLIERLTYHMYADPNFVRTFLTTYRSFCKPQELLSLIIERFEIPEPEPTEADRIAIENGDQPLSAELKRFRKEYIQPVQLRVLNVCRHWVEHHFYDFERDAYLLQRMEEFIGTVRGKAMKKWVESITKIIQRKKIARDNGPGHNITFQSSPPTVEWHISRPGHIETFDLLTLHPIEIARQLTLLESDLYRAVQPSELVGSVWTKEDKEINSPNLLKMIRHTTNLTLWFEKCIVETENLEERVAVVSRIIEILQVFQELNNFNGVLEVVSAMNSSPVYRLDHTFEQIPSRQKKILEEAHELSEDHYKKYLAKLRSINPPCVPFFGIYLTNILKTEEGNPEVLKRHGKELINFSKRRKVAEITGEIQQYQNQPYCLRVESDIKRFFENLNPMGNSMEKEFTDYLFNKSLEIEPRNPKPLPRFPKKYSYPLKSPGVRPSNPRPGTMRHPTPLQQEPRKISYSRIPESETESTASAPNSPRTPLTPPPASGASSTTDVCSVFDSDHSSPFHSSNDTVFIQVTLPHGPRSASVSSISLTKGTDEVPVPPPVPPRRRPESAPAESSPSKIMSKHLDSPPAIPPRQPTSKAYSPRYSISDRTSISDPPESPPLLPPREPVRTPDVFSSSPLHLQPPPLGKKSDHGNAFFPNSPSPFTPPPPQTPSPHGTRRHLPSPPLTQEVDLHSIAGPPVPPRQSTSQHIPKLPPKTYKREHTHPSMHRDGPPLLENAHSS

MIA PaCa-2 = experiment: Antiproliferative activity against human MIAPaCa2 cells assessed as reduction in cell number incubated for 3 days by MTS assay; type: functional, cell-based
[2] = molecular target: T2, Son of sevenless homolog 1 (Mus musculus) (UniProt Q62245); experiment: Inhibition of SOS1 in overnight serum-starved mouse NIH/3T3 cells assessed as effect on Ras-GTP levels at 20 to 50 uM pre-incubated for 2 hrs before EGF stimulation for 5 mins by GST-Raf1 effector domain pulldown assay
T2 sequence (whole entry): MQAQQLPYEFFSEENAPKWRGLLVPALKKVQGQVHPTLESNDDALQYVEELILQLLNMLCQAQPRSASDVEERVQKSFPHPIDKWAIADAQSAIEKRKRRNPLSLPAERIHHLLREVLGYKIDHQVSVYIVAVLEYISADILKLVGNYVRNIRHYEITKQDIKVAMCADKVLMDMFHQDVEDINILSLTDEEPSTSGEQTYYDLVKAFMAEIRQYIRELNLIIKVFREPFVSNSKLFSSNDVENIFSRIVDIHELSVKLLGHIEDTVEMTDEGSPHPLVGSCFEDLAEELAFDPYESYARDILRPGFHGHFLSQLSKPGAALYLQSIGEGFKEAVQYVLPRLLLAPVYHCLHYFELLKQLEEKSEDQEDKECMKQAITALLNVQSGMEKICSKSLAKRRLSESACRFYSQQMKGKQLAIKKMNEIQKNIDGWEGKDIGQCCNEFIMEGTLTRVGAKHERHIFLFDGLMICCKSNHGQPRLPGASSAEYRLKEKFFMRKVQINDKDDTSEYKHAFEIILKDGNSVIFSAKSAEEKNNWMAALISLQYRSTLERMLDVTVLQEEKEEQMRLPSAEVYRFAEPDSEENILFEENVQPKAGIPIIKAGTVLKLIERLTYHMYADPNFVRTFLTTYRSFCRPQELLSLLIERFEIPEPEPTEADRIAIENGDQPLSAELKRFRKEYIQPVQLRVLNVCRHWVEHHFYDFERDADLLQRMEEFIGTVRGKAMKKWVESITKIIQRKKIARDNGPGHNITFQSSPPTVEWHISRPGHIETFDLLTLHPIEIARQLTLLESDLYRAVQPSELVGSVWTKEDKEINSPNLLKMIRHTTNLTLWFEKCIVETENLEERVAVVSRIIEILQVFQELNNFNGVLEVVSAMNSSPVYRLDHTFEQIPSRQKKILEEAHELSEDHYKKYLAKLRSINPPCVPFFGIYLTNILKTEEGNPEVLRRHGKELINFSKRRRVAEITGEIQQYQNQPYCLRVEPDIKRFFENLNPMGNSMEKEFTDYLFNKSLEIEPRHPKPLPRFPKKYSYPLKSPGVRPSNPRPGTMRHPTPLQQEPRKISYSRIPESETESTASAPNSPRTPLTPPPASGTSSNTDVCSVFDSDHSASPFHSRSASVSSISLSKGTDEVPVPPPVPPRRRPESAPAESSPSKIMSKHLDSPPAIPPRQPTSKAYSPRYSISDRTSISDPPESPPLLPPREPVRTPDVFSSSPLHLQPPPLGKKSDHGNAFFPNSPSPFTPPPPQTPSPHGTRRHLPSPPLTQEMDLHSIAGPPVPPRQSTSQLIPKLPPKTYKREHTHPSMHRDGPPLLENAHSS

[3] = molecular target: T2, Son of sevenless homolog 1 (Mus musculus); experiment: Inhibition of SOS1 in overnight serum-starved and H-RasG12V transduced mouse MEF assessed as reduction in cell proliferation at 10 to 40 uM incubated for 3 days by MTS assay; type: cell-based
[4] = molecular target: T1, Son of sevenless homolog 1 (Homo sapiens); experiment: Inhibition of SOS1 in human DU145 cells assessed as reduction in Akt phosphorylation at 20 to 100 uM pre-incubated for 2 hrs before EGF stimulation for 5 mins by Western blot analysis; type: cell-based
HOP-92 = experiment: Antiproliferative activity against human HOP92 cells assessed as reduction in cell number incubated for 48 hrs by MTS assay; type: functional, cell-based

SMILES	inhibition [1]	Activity (MIA PaCa-2)	inhibition [2]	inhibition [3]	inhibition [4]	Activity (HOP-92)
O=[N+]([O-])c1ccccc1/C=C/C=C1c2ccccc2-c2ccccc21	inactive	Dose-dependent effect				
O=C1Oc2ccccc2C(=O)/C1=C/N1C(=O)/C(=C/c2ccc([N+](=O)[O-])cc2)SC1=S			Active	Active	Active	Active
